Patent US11319324B2, “Pyrazolo-pyrrolo-pyrimidine-dione derivatives as P2X3 inhibitors” (Bayer Aktiengesellschaft, priority 2017, dated 2022)
Counter-ions that a name gives are not always drawn.

Assays:
Type in all cases: cell-based
human P2X2/3 receptors = target: T1, human P2X2/3 receptors (Homo sapiens, UniProt P56373+Q9UBL9); assay: Intracellular calcium measurement, antagonist activity at human P2X2/3 receptors (hP2X23 1321N1), Fluo8; settings: for IC50: column 4); 1321N1 cells, human P2X2/3, Fluo8, agonist ATP at EC50; read-out: 4) hP2X2/3 IC50 [nM] (1321N1); for hP2X23/hP2X3* Selectivity (1321N1): ratio of column 4) hP2X2/3 to column 3) hP2X3, 1321N1
T1 construct: expressed in transfected cells; host or cells: human astrocytoma 1321N1 (1312N1 [sic])
T1 sequence (P56373 1-397): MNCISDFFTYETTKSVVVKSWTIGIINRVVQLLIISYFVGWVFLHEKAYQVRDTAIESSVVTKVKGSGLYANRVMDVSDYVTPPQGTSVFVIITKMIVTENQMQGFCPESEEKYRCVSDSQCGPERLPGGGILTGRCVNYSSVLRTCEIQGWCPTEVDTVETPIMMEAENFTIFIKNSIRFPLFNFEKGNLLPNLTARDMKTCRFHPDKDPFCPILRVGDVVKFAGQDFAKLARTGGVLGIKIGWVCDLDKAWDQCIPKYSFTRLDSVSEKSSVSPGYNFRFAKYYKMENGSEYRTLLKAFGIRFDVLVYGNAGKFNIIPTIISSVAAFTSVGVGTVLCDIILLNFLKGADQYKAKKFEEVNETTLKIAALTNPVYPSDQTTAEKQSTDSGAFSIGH
T1 sequence (Q9UBL9 1-471): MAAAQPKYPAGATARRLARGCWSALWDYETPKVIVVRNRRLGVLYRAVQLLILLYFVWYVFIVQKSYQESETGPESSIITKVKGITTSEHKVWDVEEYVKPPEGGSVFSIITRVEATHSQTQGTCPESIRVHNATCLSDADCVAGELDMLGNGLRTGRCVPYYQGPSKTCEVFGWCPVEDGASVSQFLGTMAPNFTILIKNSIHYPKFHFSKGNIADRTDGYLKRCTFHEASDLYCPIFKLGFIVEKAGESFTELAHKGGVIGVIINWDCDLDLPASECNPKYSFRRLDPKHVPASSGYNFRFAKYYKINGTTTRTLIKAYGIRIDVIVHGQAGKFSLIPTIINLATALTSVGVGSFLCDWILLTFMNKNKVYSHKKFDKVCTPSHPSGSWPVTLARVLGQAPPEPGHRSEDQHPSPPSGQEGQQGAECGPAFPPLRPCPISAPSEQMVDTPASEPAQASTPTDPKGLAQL
How it was run: (§1)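 Inhibition of ATP-triggered Ca2+ transients is measured in 1321N1 cells expressing P2X3 homotrimers or P2X2/3 heterotrimers.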

human P2X3 receptor [1] = target: T2, human P2X3 receptor (Homo sapiens, UniProt P56373); assay: Intracellular calcium measurement to assess antagonist activity at human P2X3 receptors (hP2X3 CHO), photina luminescence; parameters: expressed in transfected cells; host or cells: Chinese hamster ovary (CHO) cells; settings: column 2), CHO cells, agonist α,β-methylene-ATP at EC50
T2 sequence (P56373 1-397): T1 sequence (P56373 1-397)
How it was run: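 CHO cells stably expressing human P2X3 and mitochondrial photina, plated the day before at 30 °C, then loaded 3 h at 37 °C in 2 mM Ca-tyrode buffer with 5 μg/ml coelenterazine. Agonist-evoked calcium luminescence read immediately; inhibition seen as signal decrease.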

human P2X3 receptor [2] = target: T2, human P2X3 receptor; assay: Intracellular calcium measurement, antagonist activity at human P2X3 receptors (hP2X3 1321N1), Fluo8; parameters: expressed in transfected cells; host or cells: human astrocytoma 1321N1 (1312N1 [sic]); settings: column 3); 1321N1 cells, human P2X3, Fluo8, agonist ATP at EC50
How it was run: as §1

Row | SMILES | IC50 (human P2X2/3 receptors) | hP2X23/hP2X3* Selectivity (1321N1) (human P2X2/3 receptors) | IC50 (human P2X3 receptor [1]) | IC50 (human P2X3 receptor [2])
1 | CCc1cc2n(CC(=O)Nc3ccc(F)cn3)c3c(c(=O)n2n1)CN(CC1CCNCC1)C3=O.Cl [Example 240] | > 32000 nM | >25 | 628 nM | 1270 nM
2 | CCc1cc2n(CC(=O)Nc3ccc(Cl)cn3)c3c(c(=O)n2n1)CN(CC1CCOC1)C3=O (stereo not drawn) [Example 60] | > 19800 nM | >41 | 105 nM | 480 nM
3 | CCc1cc2n(CC(=O)Nc3ccc(F)cn3)c3c(c(=O)n2n1)CN(C[C@H]1CN(CCC(F)(F)F)CCO1)C3=O [Example 259] | 1170 nM | 16 | 33 nM | 71 nM
4 | CC(C)N1Cc2c(n(CC(=O)Nc3ccc(F)cn3)c3cc(NC(=O)COCc4ccccc4)nn3c2=O)C1=O [Example 287, 2-(benzyloxy)-N-[4-{2-[(5-fluoropyridin-2-yl)amino]-2-oxoethyl}-5,8-dioxo-6-(propan-2-yl)-5,6,7,8-tetrahydro-4H-pyrazolo[1,5-a]pyrrolo[3,4-d]pyrimidin-2-yl]acetamide] | 1800 nM | 38 | 32 nM | 48 nM
5 | COC[C@H](C)N1Cc2c(n(CC(=O)Nc3ccc(F)cn3)c3cc(C4CCC4)nn3c2=O)C1=O [Example 110] | 3050 nM | 254 | 7 nM | 12 nM
6 | CCc1cc2n(CC(=O)Nc3ccc(C)cn3)c3c(c(=O)n2n1)CN(CC1CCCO1)C3=O (stereo not drawn) [Example 63] | 7400 nM | 20 | 355 nM | 370 nM
7 | CCc1cc2n(CC(=O)Nc3ccc(F)cn3)c3c(c(=O)n2n1)CN(CC(=O)NC(C)C)C3=O [Example 292] | > 32000 nM | >267 | 112 nM | 120 nM
8 | CC(C)N1Cc2c(n(CC(=O)Nc3ccc(F)cn3)c3cc(C4=CCN(C(=O)OC(C)(C)C)CC4)nn3c2=O)C1=O [Example 143, tert-butyl 4-[4-{2-[(5-fluoropyridin-2-yl)amino]-2-oxoethyl}-5,8-dioxo-6-(propan-2-yl)-5,6,7,8-tetrahydro-4H-pyrazolo[1,5-a]pyrrolo[3,4-d]pyrimidin-2-yl]-3,6-dihydropyridine-1(2H)-carboxylate] | 6600 nM | 197 | 20 nM | 34 nM
9 | CCc1cc2n(CC(=O)Nc3ccc(F)cn3)c3c(c(=O)n2n1)CN(C[C@H]1CCCN1)C3=O [Example 233, 2-{2-ethyl-5,8-dioxo-6-[(2R)-pyrrolidin-2-ylmethyl]-5,6,7,8-tetrahydro-4H-pyrazolo[1,5-a]pyrrolo[3,4-d]pyrimidin-4-yl}-N-(5-fluoropyridin-2-yl)acetamide hydrochloride (1:1)] | > 32000 nM | >30 | 335 nM | 1060 nM
10 | CC(C)N1Cc2c(n(CC(=O)Nc3ccc(F)cn3)c3cc(C4CCNCC4)nn3c2=O)C1=O.Cl [Example 234, 2-[5,8-dioxo-2-(piperidin-4-yl)-6-(propan-2-yl)-5,6,7,8-tetrahydro-4H-pyrazolo[1,5-a]pyrrolo[3,4-d]pyrimidin-4-yl]-N-(5-fluoropyridin-2-yl)acetamide hydrochloride (1:1)] | > 32000 nM | >86 | 125 nM | 370 nM
11 | CC(C)N1Cc2c(n(CC(=O)Nc3ccc(F)cn3)c3cc(C4CCN(S(=O)(=O)CC(F)(F)F)C4)nn3c2=O)C1=O (stereo not drawn) [Example 271] | > 20500 nM | >569 | 81 nM | 36 nM
12 | COC[C@H](C)N1Cc2c(n(CC(=O)Nc3ccc(F)cn3)c3cc(NC4CCCC4)nn3c2=O)C1=O [Example 178] | 2200 nM | 917 | 14 nM | 2 nM
13 | CC(C)N1Cc2c(n(CC(=O)Nc3ccc(F)cn3)c3cc(C4CCN(C(=O)OC(C)(C)C)CC4)nn3c2=O)C1=O [Example 227, tert-butyl 4-[4-{2-[(5-fluoropyridin-2-yl)amino]-2-oxoethyl}-5,8-dioxo-6-(propan-2-yl)-5,6,7,8-tetrahydro-4H-pyrazolo[1,5-a]pyrrolo[3,4-d]pyrimidin-2-yl]piperidine-1-carboxylate] | 9300 nM | 132 | 24 nM | 71 nM

Next, values leading:

Row | IC50 (human P2X2/3 receptors) | hP2X23/hP2X3* Selectivity (1321N1) (human P2X2/3 receptors) | IC50 (human P2X3 receptor [1]) | IC50 (human P2X3 receptor [2]) | SMILES
14 | 3200 nM | 200 | 18 nM | 16 nM | CCc1cc2n(CC(=O)Nc3ccc(F)cn3)c3c(c(=O)n2n1)CN(Cc1ccccn1)C3=O [Example 108]
15 | 3200 nM | 70 | 38 nM | 46 nM | CC(C)N1Cc2c(n(CC(=O)Nc3ccc(F)cn3)c3cc(C(=O)NCC(F)F)nn3c2=O)C1=O [Example 184]
16 | > 22500 nM | >82 | 178 nM | 273 nM | CCc1cc2n(CC(=O)Nc3ccc(F)cn3)c3c(c(=O)n2n1)CN(CCN1CCOCC1)C3=O [Example 95]
17 | 1870 nM | 239 | 6 nM | 8 nM | CC(C)Cc1cc2n(CC(=O)Nc3ccc(F)cn3)c3c(c(=O)n2n1)CN(C(C)C)C3=O [Example 82]
18 | 9500 nM | 91 | 122 nM | 104 nM | CCc1cc2n(CC(=O)Nc3ccc(F)cn3)c3c(c(=O)n2n1)CN(C[C@H]1CCCO1)C3=O [Example 73, 2-{2-ethyl-5,8-dioxo-6-[(2R)-tetrahydrofuran-2-ylmethyl]-5,6,7,8-tetrahydro-4H-pyrazolo[1,5-a]pyrrolo[3,4-d]pyrimidin-4-yl}-N-(5-fluoropyridin-2-yl)acetamide]
19 | > 32000 nM | >188 | 175 nM | 170 nM | CC(C)N1Cc2c(n(CC(=O)Nc3ccc(F)cn3)c3cc(N4CCOCC4)nn3c2=O)C1=O [Example 180, N-(5-fluoropyridin-2-yl)-2-[2-(morpholin-4-yl)-5,8-dioxo-6-(propan-2-yl)-5,6,7,8-tetrahydro-4H-pyrazolo[1,5-a]pyrrolo[3,4-d]pyrimidin-4-yl]acetamide]
20 | 2600 nM | 61 | 103 nM | 42 nM | CCc1cc2n(CC(=O)Nc3ccc(F)cn3)c3c(c(=O)n2n1)CN(CC1CCCN1C(=O)OC(C)(C)C)C3=O (stereo not drawn) [Example 81]
21 | > 22500 nM | >180 | 155 nM | 125 nM | CNC(=O)c1cc2n(CC(=O)Nc3ccc(F)cn3)c3c(c(=O)n2n1)CN([C@@H](C)COC)C3=O [Example 193]
22 | 1800 nM | 51 | 16 nM | 36 nM | CCOC(=O)c1cc2n(CC(=O)Nc3ccc(F)cn3)c3c(c(=O)n2n1)CN(C(C)C)C3=O [Example 70, ethyl 4-{2-[(5-fluoropyridin-2-yl)amino]-2-oxoethyl}-5,8-dioxo-6-(propan-2-yl)-5,6,7,8-tetrahydro-4H-pyrazolo[1,5-a]pyrrolo[3,4-d]pyrimidine-2-carboxylate]
23 | 8000 nM | 25 | 557 nM | 325 nM | CCc1cc2n(CC(=O)Nc3ccc(F)cn3)c3c(c(=O)n2n1)CN(C[C@H]1CN(C(C)=O)CCO1)C3=O [Example 267]
24 | > 32000 nM | >15 | 830 nM | 2200 nM | CCc1cc2n(CC(=O)Nc3ccc(F)cn3)c3c(c(=O)n2n1)CN(C[C@@H]1CNCCO1)C3=O [Example 246, 2-{2-ethyl-6-[(2S)-morpholin-2-ylmethyl]-5,8-dioxo-5,6,7,8-tetrahydro-4H-pyrazolo[1,5-a]pyrrolo[3,4-d]pyrimidin-4-yl}-N-(5-fluoropyridin-2-yl)acetamide]
